Where “and” joins values, the source holds several entries; their conditions need not be identical. Identical values can stand only once.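 These data come from cells grown in 96-well plates and exposed to compound for 48 hours at five concentrations. GI50 = concentration required for 50% inhibition of growth. TGI is the concentration that stops growth completely.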
The molecules below were run on MDA-MB-468 breast (assay: NCI tumour cell line growth inhibition, 48 h).
`O=C(C1CC1)N1CC[C@@H](Cc2n[nH]c(=O)n2-c2ccc(-c3ccc4occc4c3)cc2)C1` showed a GI50 of 20300 nM and a TGI of 98100 nM. `CCOC(=O)C#Cc1c(C(=O)OCC)nnn1Cc1ccc(C(F)(F)F)cc1` gave a GI50 of 1880 nM and a TGI of 4050 nM. `O=C(Cc1ccc(OCc2ccccc2)cc1)NCc1ccc2c(c1)OCO2` was tested, and the GI50 was 5900 nM and the TGI was > 100000 nM. `C/C(=N\NC(=O)c1ccccc1N)c1ccccc1O` was tested, and the GI50 was 1710 nM and the TGI was 13800 nM. For `NC(=O)c1cc(Cl)ccc1NC(=O)COc1ccccc1`, the GI50 was 1740 nM and the TGI was > 100000 nM. With `CCCCCCCCCOc1c(OC)cc(C2CC(=O)Nc3c2c(C)nn3-c2nc3ccccc3[nH]2)cc1OC` (stereo not drawn) the GI50 was 891 nM and the TGI was 2090 nM. `N=C(N)c1ccc(-c2ccc(-c3cccs3)o2)cc1` gave a GI50 of 1720 nM and a TGI of 3400 nM. In the case of `O=C(Nc1ccc(-n2ccc3c(NC(=O)c4ccccc4)ncnc32)cc1)c1ccc(Cl)c(C(F)(F)F)c1`, the GI50 is reported as 2860 nM and the TGI is reported as 9230 nM. With `CC(C)CNC(=O)c1ccc(NC(=O)N(CC(C)C)C(=O)c2ccc(N)c(OCCCN)c2)c(OCCCN=C(N)N)c1` the GI50 was > 62500 nM and the TGI was > 62500 nM. `COc1cc(/C=C\c2cc(/C=C\c3ccc(O)c(OC)c3)n(C(=O)COc3ccccc3)n2)ccc1O` gave a GI50 of 1710 nM and a TGI of 7390 nM. For `COc1ccc2[nH]c(=O)c(/C=C/C(=O)c3ccccc3OC)cc2c1`, the GI50 was 336 nM and the TGI was 1650 nM. With `Nc1c(C(=O)c2cccc(-c3ccncc3)c2)cnn1-c1ccc(F)cc1` the GI50 was 4420 nM and the TGI was > 25000 nM. `CC1CN=C(c2cccc(-c3ccc(-c4ccccc4)o3)c2)N1` (stereo not drawn) was tested, and the GI50 was 1690 nM and the TGI was 3920 nM. With `CN1CCN(Cc2ccc(NC(=O)c3cncc(C#Cc4cnc5ccc(Cl)nn45)c3)cc2C(F)(F)F)CC1` the GI50 was 1110 nM and the TGI was 2580 nM. Molecule `C=C1C(=O)O[C@H]2[C@H]1CC/C(COC(=O)NCc1c[nH]c3ccc(Br)cc13)=C\CC[C@@]1(C)O[C@@H]21` has a GI50 of 451 nM and a TGI of 1930 nM. In the case of `CCN1CCN(Cc2ccc(NC(=O)c3nc4ccc5[nH]ncc5c4c4c3CCCC4)cc2C(F)(F)F)CC1`, the GI50 is reported as 893 nM and the TGI is reported as 1790 nM. With `O=C1C=C(Nc2cccnc2)c2ccccc2C1=O` the GI50 was 3200 nM and the TGI was 11100 nM. With `CN1C(=O)C23CC4(C56CC78SSC(CO)(C(=O)N7C5Nc5ccccc56)N(C)C8=O)c5ccccc5NC4N2C(=O)C1(CO)SS3` (stereo not drawn) the GI50 was < 24.1 nM and the TGI was 60.6 nM. For `Nc1cc2ccccc2c(O)c1O`, the GI50 was 2190 nM and the TGI was 4750 nM. Molecule `COC(=O)[C@]12CC[C@@H](C(=O)/C=C/c3cccnc3)[C@@H]1[C@H]1CC[C@@H]3[C@@]4(C)C/C(=C/c5cccnc5)C(=O)C(C)(C)[C@@H]4CC[C@@]3(C)[C@]1(C)CC2` has a GI50 of 272 nM and a TGI of 712 nM. For `COC(=O)[C@@H](C)C[C@H](Cc1ccccc1)NC(=O)c1nc([C@@H](C[C@H](C(C)C)N(C)C(=O)[C@@H](NC(=O)[C@H]2CCCCN2C)C(C)C)OC(C)=O)sc1C(C)C`, the GI50 was < 3.33 nM and the TGI was 137 nM. `N=C(N)c1ccc(-c2ccc(-c3ccc(F)cc3)s2)nc1` showed a GI50 of 1630 nM and a TGI of 3380 nM. `Oc1ccc(Cl)cc1-c1cc(-c2ccc(Cl)cc2)n[nH]1` was tested, and the GI50 was 1400 nM and the TGI was 6440 nM. `c1ccc(-c2cccc(-c3ccccn3)n2)nc1` showed a GI50 of 284 nM and a TGI of 1730 nM. Molecule `O=C1C=C2C(=CCOC2O)O1` (stereo not drawn) has a GI50 of 425 nM and a TGI of 2760 nM. In the case of `CO[C@H]1C[C@@H]2CC[C@@H](C)[C@@](O)(O2)C(=O)C(=O)N2CCCC[C@H]2C(=O)O[C@H]([C@H](C)C[C@@H]2CC[C@@H](O)[C@H](OC)C2)CC(=O)[C@H](C)C=C(C)[C@@H](O)[C@@H](OC)C(=O)[C@H](C)C[C@H](C)/C=C/C=C/C=C1C`, the GI50 is reported as 0.0364 nM and 0.315 nM and the TGI is reported as 13400 nM. With `O=c1[nH]c2c3ccncc3cc(-c3cccc(Cl)c3)c2c2cnccc12` the GI50 was > 100000 nM and the TGI was > 100000 nM. `CNC[C@@H](NC(=O)c1ccc(-c2nc([C@H]3CC[C@H](O)[C@@H](F)C3)cnc2N)cc1F)c1cc(F)cc(Br)c1` was tested, and the GI50 was 13200 nM and the TGI was 28400 nM. In the case of `NC1(c2ccc(-c3nc4ccn5c(=O)[nH]nc5c4cc3-c3ccccc3)cc2)CCC1`, the GI50 is reported as 16.9 nM and 94.3 nM and 62.6 nM. Work on `C1CCC(C(CC2CCCCN2)C2CCCCC2)CC1` (stereo not drawn) yielded a GI50 of 1370 nM and a TGI of 2850 nM. Work on `CCN1C2=C(SC(=S)C1=C1SC(C(=O)OC)=C(C(=O)OC)S1)SC(=Nc1ccc(OC)cc1)C2=O` yielded a GI50 of 1730 nM and a TGI of 3460 nM. `COc1ccc(-c2cn(-c3cccc(C(=O)/C=C/c4cc(OC)c(OC)c(OC)c4)c3)c(=O)[nH]2)cc1` was tested, and the GI50 was 3070 nM and the TGI was 10800 nM. Work on `Cc1cnc(NC2CCOCC2)nc1-n1cnc(C(=O)N[C@H](CN)c2cc(F)cc(Cl)c2)c1` yielded a GI50 of 2670 nM and a TGI of 11800 nM. `C=C(C)[C@@H]1CC[C@]2(C)[C@H](CC[C@@H]3[C@@H]([C@@](C)(O)CCC=C(C)C)CC[C@]32C)[C@@]1(C)CCC(=O)N1CCN(C)CC1` showed a GI50 of 5490 nM and a TGI of 18500 nM. `C/C(=C\C(=N\N=C(N)N)c1ccc(Cl)cc1)c1ccc(Cl)cc1` gave a GI50 of 125 nM and a TGI of 1460 nM. With `COC(=O)CCC1=C(C)C(C)=N/C1=C\c1[nH]c(-c2ccc[nH]2)cc1OC` the GI50 was 647 nM and the TGI was 2700 nM. In the case of `CN(C)c1ccc(N=Nc2ccc(Br)cn2)c(O)c1`, the GI50 is reported as 469 nM and the TGI is reported as 3980 nM. `COc1ccc2c(c1)C(=O)c1c-2c(=O)n(CCCCCCC(=O)NO)c2ccccc12` gave a GI50 of 46.3 nM and a TGI of 449 nM. `Cc1cc(-c2ccc(C3C(C#N)=C(N)Oc4c3c(=O)oc3ccccc43)cc2)cnc1F` (stereo not drawn) showed a GI50 of 17500 nM and a TGI of 82500 nM. Work on `COc1cccc(-n2ncc3c(N/N=C/c4cccc(F)c4)ncnc32)c1` yielded a GI50 of 5440 nM and a TGI of 13600 nM. `C#CCN(C)CCCOc1ccc(NCc2ccc(/C=C/C(=O)NO)cc2)cc1Cl` was tested, and the GI50 was 411 nM and the TGI was 3550 nM. `c1ccc(-c2nc([P+](c3ccccc3)(c3ccccc3)c3ccccc3)c(N3CCOCC3)o2)cc1` gave a GI50 of 278 nM and a TGI of 1060 nM.

— PubChem BioAssay (NCI)
